What was measured:
[1] = biological target: cGMP-dependent protein kinase (Eimeria tenella, UniProt Q8MMZ8); assay: Inhibition of Eimeria tenella cGMP-dependent protein kinase
Eimeria acervulina [2] = assay: Anticoccidial activity against Eimeria acervulina in chickens assessed as reduction of oocysts at 25 ppm measured after 8 days by ExMAC assay relative to untreated control; assay type: functional; design: scale not given: the % may be the effect or the level left
Eimeria maxima [3] = assay: Anticoccidial activity against Eimeria maxima in chickens assessed as reduction of oocysts at 25 ppm measured after 8 days by ExMAC assay relative to untreated control; assay type: functional; design: scale not given: the % may be the effect or the level left
Eimeria mitis [4] = assay: Anticoccidial activity against Eimeria mitis in chickens assessed as reduction of oocysts at 25 ppm measured after 8 days by ExMAC assay relative to untreated control; assay type: functional; design: scale not given: the % may be the effect or the level left
Eimeria tenella [5] = assay: Anticoccidial activity against Eimeria tenella in chickens assessed as reduction of oocysts at 25 ppm measured after 8 days by ExMAC assay relative to untreated control; assay type: functional; design: scale not given: the % may be the effect or the level left
Eimeria tenella [6] = assay: Anticoccidial activity against Eimeria tenella in chickens assessed as reduction of oocysts at 12.5 ppm measured after 8 days by ExMAC assay relative to untreated control; assay type: functional; design: scale not given: the % may be the effect or the level left
Eimeria mitis [7] = assay: Anticoccidial activity against Eimeria mitis in chickens assessed as reduction of oocysts at 12.5 ppm measured after 8 days by ExMAC assay relative to untreated control; assay type: functional; design: scale not given: the % may be the effect or the level left
Eimeria acervulina [8] = assay: Anticoccidial activity against Eimeria acervulina in chickens assessed as reduction of oocysts at 12.5 ppm measured after 8 days by ExMAC assay relative to untreated control; assay type: functional; design: scale not given: the % may be the effect or the level left
Eimeria maxima [9] = assay: Anticoccidial activity against Eimeria maxima in chickens assessed as reduction of oocysts at 12.5 ppm measured after 8 days by ExMAC assay relative to untreated control; assay type: functional; design: scale not given: the % may be the effect or the level left

Chain of cGMP-dependent protein kinase (Q8MMZ8 whole entry): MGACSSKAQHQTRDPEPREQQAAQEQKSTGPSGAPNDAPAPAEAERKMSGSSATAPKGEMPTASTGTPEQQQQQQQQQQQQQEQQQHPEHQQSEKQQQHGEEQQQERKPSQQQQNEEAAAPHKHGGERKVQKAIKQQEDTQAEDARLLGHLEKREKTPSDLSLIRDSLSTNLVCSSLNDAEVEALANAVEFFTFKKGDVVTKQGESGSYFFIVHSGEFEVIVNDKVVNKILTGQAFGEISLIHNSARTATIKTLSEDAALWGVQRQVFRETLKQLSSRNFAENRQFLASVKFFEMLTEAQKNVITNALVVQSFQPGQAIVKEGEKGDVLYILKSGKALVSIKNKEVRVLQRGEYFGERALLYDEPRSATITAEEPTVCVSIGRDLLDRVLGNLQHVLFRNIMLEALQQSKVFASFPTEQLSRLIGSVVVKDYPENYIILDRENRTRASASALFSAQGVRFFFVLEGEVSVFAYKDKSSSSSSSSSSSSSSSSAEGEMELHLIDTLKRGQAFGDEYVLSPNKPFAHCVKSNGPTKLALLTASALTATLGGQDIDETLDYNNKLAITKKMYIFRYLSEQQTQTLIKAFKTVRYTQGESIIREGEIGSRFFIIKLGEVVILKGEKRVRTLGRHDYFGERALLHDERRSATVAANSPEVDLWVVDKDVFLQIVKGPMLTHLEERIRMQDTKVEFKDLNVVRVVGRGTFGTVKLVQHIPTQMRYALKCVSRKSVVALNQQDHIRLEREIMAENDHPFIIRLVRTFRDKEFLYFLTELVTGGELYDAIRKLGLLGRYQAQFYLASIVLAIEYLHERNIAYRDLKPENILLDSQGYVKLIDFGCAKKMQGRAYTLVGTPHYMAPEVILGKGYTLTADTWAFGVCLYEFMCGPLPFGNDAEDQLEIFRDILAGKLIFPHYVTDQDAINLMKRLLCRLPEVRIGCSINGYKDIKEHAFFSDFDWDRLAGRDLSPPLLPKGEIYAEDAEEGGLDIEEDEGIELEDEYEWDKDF

Structure (SMILES) | IC50 [1] | Activity (Eimeria acervulina [2]) | Activity (Eimeria maxima [3]) | Activity (Eimeria mitis [4]) | Activity (Eimeria tenella [5]) | Activity (Eimeria tenella [6]) | Activity (Eimeria mitis [7]) | Activity (Eimeria acervulina [8]) | Activity (Eimeria maxima [9])
Nc1nccc(-c2c(-c3ccc(F)cc3)nc3cc(C4CCNCC4)ccn23)n1 | 0.046 nM | <50% | 100% | <50% | <50% |  |  |  | 
CNC(=O)c1ccn2c(-c3ccnc(N)n3)c(-c3ccc(F)cc3)nc2c1 | 3.1 nM | <50% | 50% | <50% | <50% |  |  |  | 
CN(CC#N)Cc1ccn2c(-c3ccnc(N)n3)c(-c3ccc(F)cc3)nc2c1 | 1.33 nM | 80% | <50% | <50% | 80% |  |  |  | 
Nc1nccc(-c2c(-c3ccc(F)cc3)nc3cc(C4CCN(CCc5ccccc5)CC4)ccn23)n1 | 0.07 nM |  |  |  |  | <50% | <50% | <50% | 
CN(CCO)Cc1ccn2c(-c3ccnc(N)n3)c(-c3ccc(F)cc3)nc2c1 | 0.4 nM |  |  |  |  | <50% | <50% | <50% | <50%
CCC(C)CN1CCC(c2ccn3c(-c4ccnc(N)n4)c(-c4ccc(F)cc4)nc3c2)CC1 (stereo not given) | 0.13 nM |  |  |  |  | 80% | <50% | 80% | 
CC(C)(C)CCN1CCC(c2ccn3c(-c4ccnc(N)n4)c(-c4ccc(F)cc4)nc3c2)CC1 | 0.11 nM |  |  |  |  | 80% | <50% | <50% | 
CN1CCN(Cc2ccn3c(-c4ccnc(N)n4)c(-c4ccc(F)cc4)nc3c2)CC1 | 2.2 nM | <50% | 80% | 80% | 80% | <50% | <50% | <50% | <50%
COCCN(C)Cc1ccn2c(-c3ccnc(N)n3)c(-c3ccc(F)cc3)nc2c1 | 0.26 nM |  |  |  |  | <50% | <50% | <50% | <50%
C#CCN(C)Cc1ccn2c(-c3ccnc(N)n3)c(-c3ccc(F)cc3)nc2c1 | 0.65 nM |  |  |  |  | <50% | <50% | <50% | <50%
CC(C)(CN)c1ccn2c(-c3ccnc(N)n3)c(-c3ccc(F)cc3)nc2c1 | 0.26 nM | <50% | <50% | 50% | 50% |  |  |  | 
CCCCCCN1CCC(c2ccn3c(-c4ccnc(N)n4)c(-c4ccc(F)cc4)nc3c2)CC1 | 0.13 nM |  |  |  |  | 50% | <50% | <50% | 
CC(C)(C)NCc1ccn2c(-c3ccnc(N)n3)c(-c3ccc(F)cc3)nc2c1 | 0.35 nM |  |  |  |  |  |  |  | 
CCC(CN(C)C)c1ccn2c(-c3ccnc(N)n3)c(-c3ccc(F)cc3)nc2c1 (stereo not given) | 0.4 nM | <50% | 100% | <50% | 100% |  |  |  | 
CN(C)C(=N)c1ccn2c(-c3ccnc(N)n3)c(-c3ccc(F)cc3)nc2c1 | 2.5 nM | 50% | <50% | <50% | <50% |  |  |  | 
CCCC(C)CN1CCC(c2ccn3c(-c4ccnc(N)n4)c(-c4ccc(F)cc4)nc3c2)CC1 (stereo not given) | 0.12 nM |  |  |  |  | 80% | <50% | <50% | 

— ChEMBL document CHEMBL1141668, “Synthesis and biological activity of imidazopyridine anticoccidial agents: Part II” (Eur J Med Chem, 2008)
